Article PMC4243815, “A non-pediocin low molecular weight antimicrobial peptide produced by Pediococcus pentosaceus strain IE-3 shows increased activity under reducing environment” (BMC Microbiology, 2014)
In brackets after ≈: the same amount, converted by molar mass. Ends that are not written are not given here. Peptide text beside a SMILES is read from it.

Experiments:
[1] = Effect of pH on antimicrobial activity of the purified peptide; format: physicochemical
Procedure: (§1) The sensitivity of the bacteriocin towards different pH, temperatures and proteases was evaluated using purified bacteriocin. The purified peptide was incubated between pH values 2.0-10.0 and temperatures including 80, 100°C for 30 min and 120°C for 15 min. Antimicrobial peptide (200 μg) was incubated with various proteolytic enzymes such as trypsin (10 μg/ml, Sigma, USA), chymotrypsin (5 μg/ml, Sigma, USA) and proteinase K (5 units, Sigma, USA) in 100 mM Tris HCl buffer pH 8.0 (with 10 mM CaCl2) at 30°C for 6 h to determine their effect. The enzyme activity was terminated by heating the reaction mix at 80°C and subsequently used for antimicrobial activity assay. To test the effect of denaturant like DTT (BioRad, USA) on antimicrobial activity of the peptide, it was incubated with 50 to 150 mM DTT at room temperature for 1 h and used for growth inhibition assay. Hydrogen peroxide induced oxidation was tested by incubating the purified peptide with 100 mM concentration of hydrogen peroxide (Merck, India) for 1 h at room temperature [36] and activity was tested by well diffusion assay.

[2] = Effect of DTT on antimicrobial activity of the purified peptide; conditions: 1 h/RT, growth inhibition assay
Procedure: as §1

trypsin = test: Effect of proteolytic enzymes on antimicrobial activity; conditions: 200 μg peptide; trypsin 10 μg/ml; 100 mM Tris HCl pH 8.0 with 10 mM CaCl2; 30°C, 6 h; read-out antimicrobial assay
Procedure: The sensitivity of the bacteriocin towards different pH, temperatures and proteases was evaluated using purified bacteriocin. The purified peptide was incubated between pH values 2.0-10.0 and temperatures including 80, 100°C for 30 min and 120°C for 15 min. Antimicrobial peptide (200 μg) was incubated with various proteolytic enzymes such as trypsin (10 μg/ml, Sigma, USA), chymotrypsin (5 μg/ml, Sigma, USA) and proteinase K (5 units, Sigma, USA) in 100 mM Tris HCl buffer pH 8.0 (with 10 mM CaCl2) at 30°C for 6 h to determine their effect. The enzyme activity was terminated by heating the reaction mix at 80°C and subsequently used for antimicrobial activity assay. To test the effect of denaturant like DTT (BioRad, USA) on antimicrobial activity of the peptide, it was incubated with 50 to 150 mM DTT at room temperature for 1 h and used for growth inhibition assay. Hydrogen peroxide induced oxidation was tested by incubating the purified peptide with 100 mM concentration of hydrogen peroxide (Merck, India) for 1 h at room temperature and activity was tested by well diffusion assay.

proteinase K = target: T1, proteinase K (Parengyodontium album, UniProt P06873); test: as above; conditions: 200 μg peptide; proteinase K 5 units; 100 mM Tris HCl pH 8.0 with 10 mM CaCl2; 30°C, 6 h; read-out antimicrobial assay
T1 construct: purchased Sigma, USA
T1 sequence (P06873 106-384): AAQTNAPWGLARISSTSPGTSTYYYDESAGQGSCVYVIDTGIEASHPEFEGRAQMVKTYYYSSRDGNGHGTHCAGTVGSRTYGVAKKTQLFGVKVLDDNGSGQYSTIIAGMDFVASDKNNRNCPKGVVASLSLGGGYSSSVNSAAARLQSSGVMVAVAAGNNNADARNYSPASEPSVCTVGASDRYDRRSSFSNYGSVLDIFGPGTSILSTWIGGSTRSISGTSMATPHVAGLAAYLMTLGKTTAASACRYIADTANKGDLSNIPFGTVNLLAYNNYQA
Procedure: as §1

[3] = Hydrogen peroxide induced oxidation, activity by well diffusion assay; format: physicochemical; conditions: 100 mM hydrogen peroxide, 1 h, room temperature
Procedure: as §1

[4] = Storage stability of the purified peptide; format: physicochemical
M. luteus = format: cell-based, Micrococcus luteus; conditions: 16 h
Procedure: The MIC was determined for various indicator strains using a microtiter plate dilution assay as described earlier. Cell growth was measured by observing OD at 600 nm at 16 h time interval using microtiter plate reader (Multiskan spectrum, Thermo, USA). The protein concentration was determined by BCA protein concentration estimation kit (Thermo, USA) following instructions of the manufacturer. For MIC determination of DTT treated peptide, the DTT solution was filter sterilized and final 100 mM concentration was used to treat peptide.

amylase = test: Effect of amylase treatment on antimicrobial activity
[5] = test system: pepsin, trypsin, chymotrypsin, proteinase K and pronase E; conditions: cited from earlier work
Source text: Bacteria produces different kinds of antimicrobial substances including ribosomally synthesized bacteriocins and non-ribosomally synthesized antibiotics or lipopeptides as a part of their defense strategies in complex environments such as fermented foods and the human gut. Members belonging to the lactic acid bacteria (LAB) family with ability to produce bacteriocins are frequently found in these environments. LAB strains are recognized as GRAS (Generally Regarded As Safe) microorganisms and have been studied in detail for biotechnological applications together with the bacteriocins prod ...

CC(C)C[C@H](NC(=O)[C@H](Cc1c[nH]cn1)NC(=O)[C@@H](NC(=O)[C@H](CC(C)C)NC(=O)[C@H](CS)NC(=O)CNC(=O)[C@H](CCCNC(=N)N)NC(=O)[C@@H](NC(=O)[C@H](CS)NC(=O)[C@H](CO)NC(=O)[C@H](Cc1ccccc1)NC(=O)[C@@H]1CCCN1C(=O)[C@@H](NC(=O)[C@@H]1CCCN1C(=O)[C@H](C)N)C(C)C)[C@@H](C)O)[C@@H](C)O)C(=O)N[C@H](C(=O)O)C(C)C [LMW peptide] (H-APVPFSCTRGCLTHLV-OH; N-terminus and C-terminus assumed)
Residual activity (%) ([1]; pH 2, Overnight/ RT): 100.0%
Residual activity (%) ([1]; pH 3, Overnight/ RT): 100.0%
Residual activity (%) ([1]; pH 4, Overnight/ RT): 100.0%
Residual activity (%) ([1]; pH 5, Overnight/ RT): 100.0%
Residual activity (%) ([1]; pH 6, Overnight/ RT): 87.5%
Residual activity (%) ([1]; pH 7, Overnight/ RT): 75.0%
Residual activity (%) ([1]; pH 8, Overnight/ RT): 37.5%
Residual activity (%) ([1]; pH 9, Overnight/ RT): 25.0%
Residual activity (%) ([1]; pH 10, Overnight/ RT): 12.5%
Residual activity (%) ([2]; DTT 0 mM): 100.0%
Residual activity (%) ([2]; DTT 50 mM): 125.0%
Residual activity (%) ([2]; DTT 100 mM): 143.7%
Residual activity (%) ([2]; DTT 150 mM): 143.7%
Antimicrobial activity after incubation with proteolytic enzyme (trypsin): no reduction in activity
Antimicrobial activity after incubation with proteolytic enzyme (proteinase K): no reduction in activity
Antimicrobial activity after incubation with H2O2 [3]: did not show any antimicrobial activity
Antimicrobial activity during storage ([4]; purified peptide stored at room temperature, within 24 h): significant reduction in antimicrobial activity
Antimicrobial activity during storage ([4]; purified peptide stored at −20°C): stable
MIC (M. luteus): 6.3 µM (≈ 10.7 µg/mL)
Antimicrobial activity upon treatment with amylase (amylase): Stable activity

pediocin PA-1: well-studied 4.6 kDa class IIa antimicrobial peptide (bacteriocin) from Pediococcus sp. (KYYGNGVTCGKHSCSVDWGKATTCIINNGAMAWATGGHQGNHKC; ends and bridges not checked; cysteine pairing not given here; UniProt P29430 19-62, looked up)
Effect of proteases on activity [5]: inactivated
